Measurements from ChEMBL document CHEMBL1129107, “Substituted morpholine-2S-acetic acid derivatives: Sch 50911 and related compounds as novel GABAB antagonists” (Bioorg Med Chem Lett, 1996).

Columns and labels:
[1] = Antagonistic activity was measured by the inhibition of Gamma-aminobutyric acid type B receptor binding to rat brain synaptosomes; assay type: subcellular
Cavia porcellus [2] = species: Cavia porcellus; test: Antagonistic activity was measured by the reversal inhibition of EFS stimulated neuronal cholinergic contraction of guinea pig tracheal rings at 300 uM; assay type: functional; settings: Trachea
Cavia porcellus [3] = species: Cavia porcellus; test: Antagonistic activity was measured by the reversal inhibition of EFS stimulated neuronal cholinergic contraction of guinea pig tracheal rings; assay type: functional; settings: Trachea

Row | SMILES | IC50 [1] | inhibition at 300 µM (Cavia porcellus [2]) | IC50 (Cavia porcellus [3])
1 | CCOC(OCC)P(=O)(O)CCCN | 62 µM | 50% | 65 µM
2 | CC[C@@H]1CO[C@@H](CC(=O)O)CN1 | 10 µM | 95% | 
3 | O=C(O)CC1CNC2(CCCC2)CO1 (racemic) | 11 µM | 97% | 
4 | CC1COC(CC(=O)O)CN1 (racemic; form 2) | 9 µM |  | 
5 | CC[C@@H]1CO[C@H](CC(=O)O)CN1 | > 100 µM |  | 
6 | CC1(C)CO[C@@H](CC(=O)O)CN1 | 1.1 µM |  | 
7 | CC1(C)COC(CC(=O)O)CN1 (stereo in doubt; 24) | > 100 µM |  | 
8 | CC1COC(CC(=O)O)CN1 (racemic; form 1) | 37 µM | 76% | 
9 | CC[C@H]1CO[C@H](CC(=O)O)CN1 | > 100 µM |  | 
10 | CCC1(CO)COC(CC(=O)O)CN1 (racemic; form 2) | 100 µM |  | 
11 | CC1(CO)COC(CC(=O)O)CN1 (racemic; form 1) | 2 µM |  | 4.5 µM
12 | CC1(C)COC(CC(=O)O)CN1 (racemic) | 3 µM |  | 4.6 µM
13 | O=C(O)CC1CNC2(CC2)CO1 (racemic) | 37 µM |  | 
14 | CCC1(CO)COC(CC(=O)O)CN1 (racemic; form 1) | 19 µM | 99% | 
15 | CC1(CO)COC(CC(=O)O)CN1 (racemic; form 2) | 5 µM |  | 
16 | O=C(O)CC1CNCCO1 (stereo not given) | > 100 µM | 46% | 
